This is an account of results in PMC4166935, “Toward Biophysical Probes for the 5-HT3 Receptor: Structure−Activity Relationship Study of Granisetron Derivatives” (Journal of Medicinal Chemistry, 2010).

Assay [1] addresses T1, human 5-HT3A receptor (Homo sapiens, UniProt P46098).
T1 construct: expressed in transfected cells; cell membranes
T1 sequence (P46098 24-478): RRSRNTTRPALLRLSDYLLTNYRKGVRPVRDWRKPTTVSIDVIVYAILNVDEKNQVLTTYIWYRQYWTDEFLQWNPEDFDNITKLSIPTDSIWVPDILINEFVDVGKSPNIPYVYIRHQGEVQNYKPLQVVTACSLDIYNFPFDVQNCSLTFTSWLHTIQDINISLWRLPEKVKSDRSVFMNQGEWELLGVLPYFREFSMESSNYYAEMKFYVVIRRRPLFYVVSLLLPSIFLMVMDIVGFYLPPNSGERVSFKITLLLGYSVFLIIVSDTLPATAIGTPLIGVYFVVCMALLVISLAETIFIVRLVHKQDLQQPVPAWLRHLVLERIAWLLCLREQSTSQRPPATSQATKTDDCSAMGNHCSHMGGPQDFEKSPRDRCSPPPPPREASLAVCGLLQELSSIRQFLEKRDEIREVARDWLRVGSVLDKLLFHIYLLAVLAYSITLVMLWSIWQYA
Put plainly: [3H]granisetron competition binding, HEK293 cell membranes stably expressing h5-HT3AR. As for the experimental part:
Materials and cell culture maintenance
All cell culture reagents were obtained from Gibco BRL (Paisley, UK), except foetal calf serum which was from Labtech International (Ringmer, UK). [3H]granisetron (63.5 Ci/mmol) was from PerkinElmer (Boston, Massachusetts, USA).
Human embryonic kidney (HEK)-293 cells were maintained on 90 mm tissue culture plates at 37°C and 7% CO2 in a humidified atmosphere. Cells were cultured in DMEM:F12 (Dulbecco’s modified Eagle medium/nutrient mix F12 (1:1)) with GlutaMAX™ I containing 10% foetal calf serum and passaged when 90% confluent.
Receptor expression and radioligand binding
HEK-293 cells stably expressing the human 5-HT3A subunit (accession number: P46098) were scraped into 1 mL of ice-cold HEPES buffer (10 mM, pH 7.4) and frozen at –20°C.
After thawing, they were spun at 13,000 rpm for 1 min, resuspended and 50 μg of cell […]
Competition binding (12 points) was performed on at least three separate plates of cells.
Nonspecific binding was determined using 10 μM quipazine or other competitive antagonist.
Reactions were incubated for at least 1 h at 4°C and terminated by vacuum filtration, using a Brandel cell harvester, onto GF/B filters presoaked in 0.3% polyethyleneimine. Radioactivity was determined by scintillation counting using a Beckman LS6000SC (Fullerton, CA, USA).
Competition binding data were analyzed by iterative curve fitting (GraphPad Prism v3.02, GraphPad Software, San Diego, CA, USA), according to the equation: […]
where [L] is the concentration of ligand present, BL is the binding in the presence of ligand […]
the concentration of L which gives a binding equal to (Bmax + Bmin)/2, and nH is the Hill coefficient. Ki values were calculated from IC50 values using the Cheng–Prusoff equation: […]
where Ki is the equilibrium dissociation constant for binding of the unlabelled antagonist, [L] is the concentration of radioligand and Kd is the equilibrium dissociation constant of the radioligand. Values are presented as mean ± SEM.

Assay [2] concerns 5-HT3 receptor. Also noted: method as in earlier work. The settings on record: cited from earlier work.
The target of assay [3] is T2, h5-HT3AR in HEK293 cells (Homo sapiens, UniProt P46098).
T2 sequence (P46098 24-478): T1 sequence (P46098 24-478)
Put plainly: Confocal labeling of HEK293 cells stably transfected with h5-HT3AR with fluorescent probe 16. Type of assay: cell-based. As to conditions: 10 μM quipazine with 10 nM 16 for 10 min. As for the experimental part: To confirm the validity of this hypothesis, we attached a BODIPY FL fluorophore at this position (Scheme 3) to create fluorescent analogue 16 (BFL-GR). […] Similar images have previously been obtained using fluorescein, rhodamine 6G, and cyanine Cy5 dyes attached via a linker at a similar position of ondansetron, another high-affinity 5-HT3AR antagonist.[30]
Figure 3 Labeling of HEK293 cells stably transfected with h5-HT3AR with 16. Cells were incubated in 10 nM 16 for 10 min with (B) or without (A) 10 μM quipazine, washed, mounted, and then observed in a confocal microscope.[31] […] Unlabeled areas are nuclei. […] Scale bar represents 20 μm.

Setting [4] is: Ki (nM) mean ± SEM, competition with 1 nM [3H]granisetron, HEK293 cell membranes stably expressing h5-HT3AR.
[5] abbreviates: competition with 1 nM [3H]granisetron, HEK293 cell membranes stably expressing h5-HT3AR, read-out: Ki (nM) mean ± SEM.

Read-outs that look alike come from different tables or passages of the source.

The Ki is a dissociation constant, usually derived from enzyme kinetics or from competition with a known ligand. As to `COc1cccc2c1c(C(=O)NC1CC3CCCC(C1)N3C)nn2C` (stereo not drawn) [2b], in assay [1], affinity was put at a Ki of 26.3 ± 7.4 nM.

Regarding `CN1C2CCCC1CC(NC(=O)c1nn(C)c3cccc(OCc4ccccc4)c13)C2` (stereo not drawn) [2c], in assay [1] (setting [4]), affinity was put at a Ki of 375 ± 61 nM. As for `CN1C2CCCC1CC(NC(=O)c1nn(C)c3ccc(OCc4ccccc4)cc13)C2` (stereo not drawn) [3c], the Ki in assay [1] (setting [5]) amounted to 3030 ± 956 nM. Still for that read-out and setting: the result for `CN1C2CCCC1CC(NC(=O)c1nn(C)c3cc(OCc4ccccc4)ccc13)C2` (stereo not drawn) [4c] reads 749 ± 183 nM. As for `CN1C2CCCC1CC(NC(=O)c1nn(C)c3c(O)cccc13)C2` (stereo not drawn) [5a], the “potency compared to granisetron” value in assay [2] was “as potent as granisetron”. Consider `COc1cccc2c(C(=O)NC3CC4CCCC(C3)N4C)nn(C)c12` (stereo not drawn) [5b], for which the affinity in assay [1], expressed as Ki, was 71.1 ± 8 nM.

As for `CN1C2CCCC1CC(NC(=O)c1nn(C)c3c(OCc4ccccc4)cccc13)C2` (stereo not drawn) [5c], in assay [1] (setting [4]), the affinity, expressed as Ki, was 0.23 ± 0.03 nM. For the same compound, the “affinity for 5-HT3AR compared to 1” value in assay [1] (comparison with granisetron (1)) was “equal or exceed the affinity measured for 1”.

`c1ccc2nc(N3CCNCC3)ccc2c1` [Quipazine, quipazine]: in assay [3], the “displacement of 16 from its binding sites” value is given as “has displaced 16 from its binding sites”.
